According to patent publication US8933195B2, “Histone deacetylase inhibitors and synthetic method thereof and use thereof in manufacture of medicaments” (Nanjing Yoko Biomedical R & D Ltd., priority 2011, dated 2015):
pIC50: −log10 of the molar value.

Assays:
[1] = system: Incap; test: MTT cancer cell growth inhibition; assay type: cell-based; conditions: 72 h
[2] = system: MOLT-4 (human acute lymphoblastic leukemia cells); test: MTT cancer cell growth inhibition; assay type: cell-based; conditions: 72 h
Excerpt: (§1) 1. Experimental principles: the inhibition of cancer cell growth with compounds is detected by an MTT method. The principle of the MTT method is as follows: yellow thiazolyl blue may penetrate through cell membranes and enter into cells, succinate dehydrogenase in living cell mitochondria may reduce exogenous MTT into water-insoluble ianthinus acicular Formazan crystals which deposit in the cells, the crystals can be dissolved with dimethyl sulfoxide (DMSO), the optical density of the crystals is detected with an enzyme-linked immunometric meter at the wavelength of 490 nm/570 nm, and the number of cells can be indirectly reflected.
(§2) 2. Experimental materials: the used cancer cell lines are Hela (human cervical cancer cells), MCF-7 (human breast cancer cells), BGC-823 (human gastric cancer cells), A549 (human lung cancer cells), HT1080 (human fibrosarcoma cells), A431 (human epidermal squamous cell carcinoma cells), HUVEC (human umbilical vein endothelial cells), DU145 (human prostate cancer cells), K562 (human leukemia cells), U937 (human leukemia cells), Pac-1 (human pancreatic cancer cells), and MOLT-4 (human acute lymphoblastic leukemia cells), which are cultured with a DMEM+10% FBS culture medium or a 1640+10% FBS culture medium, respectively.
(§3) Experimental groups: 190 μl cell suspension+10 μl pharmaceuticals in different concentrations (the final concentration is 10^−5-10^−10M)
(§4) Negative control group: 190 μl cell suspension+10 μl 2% DMSO (the final concentration of DMSO is 0.1%)
(§5) a) Cells are inoculated on a 96-pore plate, with 1500 cells and 190 μl for each hole, and cultured overnight in a 5% CO2 incubator at 37.
(§6) b) 10 μl of different pharmaceuticals is added into each hole the next day, with the final concentration of the pharmaceuticals of 10^−5-10^−10M and three parallel holes, and incubated for 72 h in a 5% CO2 incubator at 37.
(§7) c) 20 μl of 5 mg/mL MTT is added into each hole, and incubated for 4 h in a 5% CO2 incubator at 37.
(§8) d) Supernatant is removed. 100 μl of DMSO is added into each hole and vibrated.
(§9) e) The reading is 570 nm. The cell survival rate is calculated.

[3] = system: PANC-1; test: MTT cancer cell growth inhibition; assay type: cell-based; conditions: Homo sapiens, 72 h
Excerpt: as §1, §2, §3, §4, §5, §6, §7, §8, §9

[4] = system: MCF-7 (human breast cancer cells); test: MTT cancer cell growth inhibition; assay type: cell-based; conditions: MCF7, 72 h
Excerpt: as §1, §2, §3, §4, §5, §6, §7, §8, §9

[5] = system: DU145 (human prostate cancer cells); test: MTT cancer cell growth inhibition; assay type: cell-based; conditions: DU-145, 72 h
Excerpt: as §1, §2, §3, §4, §5, §6, §7, §8, §9

[6] = system: A549 (human lung cancer cells); test: MTT cancer cell growth inhibition; assay type: cell-based; conditions: 72 h
Excerpt: as §1, §2, §3, §4, §5, §6, §7, §8, §9

[7] = system: HT1080 (human fibrosarcoma cells); test: MTT cancer cell growth inhibition; assay type: cell-based; conditions: HT-1080, 72 h
Excerpt: as §1, §2, §3, §4, §5, §6, §7, §8, §9

[8] = system: Hela (human cervical cancer cells); test: MTT cancer cell growth inhibition; assay type: cell-based; conditions: 72 h
Excerpt: as §1, §2, §3, §4, §5, §6, §7, §8, §9

[9] = system: U937 (human leukemia cells); test: MTT cancer cell growth inhibition; assay type: cell-based; conditions: U-937, 72 h
Excerpt: as §1, §2, §3, §4, §5, §6, §7, §8, §9

[10] = system: BGC-823 (human gastric cancer cells); test: MTT cancer cell growth inhibition; assay type: cell-based; conditions: 72 h, read-out: GI50 BGC823
Excerpt: as §1, §2, §3, §4, §5, §6, §7, §8, §9

[11] = molecular target: HDAC1 (Homo sapiens, UniProt Q13547); test: Measurement of biochemical activities of HDAC (fluorescently-labeled acetylated lysine substrate); conditions: read-out: IC50 HDAC1
Chain of HDAC1 (Q13547 whole entry, species assumed): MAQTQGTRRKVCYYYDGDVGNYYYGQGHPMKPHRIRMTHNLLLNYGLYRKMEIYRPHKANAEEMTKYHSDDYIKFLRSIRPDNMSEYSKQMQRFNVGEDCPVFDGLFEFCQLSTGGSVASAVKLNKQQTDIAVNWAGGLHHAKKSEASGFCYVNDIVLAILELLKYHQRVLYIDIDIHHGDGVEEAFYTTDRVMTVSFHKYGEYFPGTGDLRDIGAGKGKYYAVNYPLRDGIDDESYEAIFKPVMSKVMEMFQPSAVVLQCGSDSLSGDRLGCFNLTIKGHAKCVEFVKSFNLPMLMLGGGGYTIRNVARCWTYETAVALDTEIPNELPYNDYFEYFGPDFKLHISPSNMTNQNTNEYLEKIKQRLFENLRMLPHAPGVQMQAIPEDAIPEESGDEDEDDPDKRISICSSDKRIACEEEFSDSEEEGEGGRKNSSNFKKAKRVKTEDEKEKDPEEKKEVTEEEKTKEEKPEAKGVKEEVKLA
Method: (§10) 1. Measurement principles: the measurement of biochemical activities of compounds is determined according to the degree of the compounds inhibiting the deacylation of HDAC enzyme. After the fluorescently-labeled substrate containing acetylated lysine side chain reacts with the HDAC enzyme, the fluorogenic substrate is deacetylated. After the deacetylated fluorescently-labeled substrate is cracked by the enzyme, a fluorescent substance is released. The fluorescent substance generates emitting light of 460 nm under the excitation of light of 360 nm.
(§11) 2. Detailed steps: the substrate of HDAC is diluted to […] (the reaction concentration is […]) with a reaction buffer. HDAC enzyme is diluted to a proper concentration. The compounds to be detected in different concentrations are added. The mixture reacts for 30 min at 37. Then the developer with the same volume and twice concentration of the substrate is added into the mixture. The mixture is incubated for 15 min at room temperature. Finally, the reading is measured with a micro plate scanner. The excitation light is 360 nm, the emitting light is 460 nm, and the data is processed with Prime 4 software.

[12] = molecular target: T1, HDAC7 (Homo sapiens, UniProt Q8WUI4); test: as above
T1 sequence (Q8WUI4 1-952): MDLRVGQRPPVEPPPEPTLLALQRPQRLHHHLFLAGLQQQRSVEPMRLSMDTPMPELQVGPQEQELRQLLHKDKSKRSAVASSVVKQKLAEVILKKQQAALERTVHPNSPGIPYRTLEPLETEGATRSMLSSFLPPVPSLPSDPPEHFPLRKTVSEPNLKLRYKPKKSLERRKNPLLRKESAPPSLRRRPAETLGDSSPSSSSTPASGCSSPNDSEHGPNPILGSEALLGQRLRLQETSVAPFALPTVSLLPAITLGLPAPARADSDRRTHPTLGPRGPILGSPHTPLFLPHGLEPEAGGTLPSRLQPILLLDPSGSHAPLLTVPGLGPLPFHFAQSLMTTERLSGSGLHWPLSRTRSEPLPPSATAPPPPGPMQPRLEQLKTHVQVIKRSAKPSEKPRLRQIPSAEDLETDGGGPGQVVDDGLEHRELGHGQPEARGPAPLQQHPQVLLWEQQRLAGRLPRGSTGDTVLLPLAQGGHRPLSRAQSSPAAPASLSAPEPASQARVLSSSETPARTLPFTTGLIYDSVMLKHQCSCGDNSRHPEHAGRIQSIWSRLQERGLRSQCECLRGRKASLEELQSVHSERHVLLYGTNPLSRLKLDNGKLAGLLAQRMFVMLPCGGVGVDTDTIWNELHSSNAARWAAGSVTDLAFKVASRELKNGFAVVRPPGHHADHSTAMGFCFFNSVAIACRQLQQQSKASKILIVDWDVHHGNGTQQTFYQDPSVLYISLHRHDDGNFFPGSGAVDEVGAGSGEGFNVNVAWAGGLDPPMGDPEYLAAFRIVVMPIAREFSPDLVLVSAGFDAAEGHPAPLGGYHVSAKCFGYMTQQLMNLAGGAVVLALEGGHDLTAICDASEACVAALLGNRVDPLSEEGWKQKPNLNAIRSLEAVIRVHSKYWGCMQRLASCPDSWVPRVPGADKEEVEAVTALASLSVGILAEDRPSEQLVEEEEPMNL
Method: as §10, §11

Row | SMILES | GI50 [1] [µM] | GI50 [2] [µM] | GI50 [3] [µM] | GI50 [4] [µM] | GI50 [5] [µM] | GI50 [6] [µM] | GI50 [7] [µM] | GI50 [8] [µM] | GI50 [9] [µM] | GI50 [10] [µM] | pIC50 [11] | IC50 HDAC7 [12]
1 | C=C1NC(=O)c2csc(n2)CNC(=O)C[C@@H](/C=C/CCSC(=O)CCCCCCC)OC(=O)[C@H](C(C)C)NC1=O [Compound 3-1] | 5.4 | 0.15 | 10.6 | 2.1 | 2.03 | 0.35 | 1.06 | 0.01 | 21.5 | 1.2 | > 5.00 | no activity
2 | C/C=C1\NC(=O)C2N=C(CNC(=O)C[C@@H](/C=C/CCSC(=O)CCCCCCC)OC(=O)[C@H](C(C)C)NC1=O)O[C@@H]2C (stereo partly drawn) [Compound 2-2] | 23.6 | 26.2 | 0.6 | 2.3 | 56.5 | 2 | 4.5 | 0.6 | 10.2 | 1.6 | > 5.00 | no activity
3 | C/C=C1\NC(=O)C2C=NC(=N2)CNC(=O)C[C@@H](/C=C/CCSC(=O)CCCCCCC)OC(=O)[C@H](C(C)C)NC1=O (stereo partly drawn) [Compound 2-4] | 85.2 | 0.9 | 4.2 | 52.6 | 6.4 | 4.5 | 1.6 | 23 | 18.6 | 2.6 | > 5.00 | no activity
4 | C/C=C1\NC(=O)c2csc(n2)CNC(=O)C[C@@H](/C=C/CCSC(=O)CCCCCCC)OC(=O)[C@@H](C)NC1=O [Compound 1-5] | 0.6 | 1 | 3 | 0.8 | 0.1 | 0.6 | 1 | 2 | 0.1 | 0.1 | > 5.00 | no activity
5 | C/C=C1\NC(=O)c2csc(n2)CNC(=O)C[C@@H](/C=C/CCSC(=O)CCO)OC(=O)[C@H](C(C)C)NC1=O [Compound 6-5] | 0.45 | 0.268 | 1.65 | 4.12 | 0.695 | 0.365 | 1.65 | 0.54 | 2.66 | 26.5 | > 5.00 | no activity
6 | C/C=C1\NC(=O)c2csc(n2)CNC(=O)C[C@@H](/C=C/CCSC(=O)CCCCCCC)OC(=O)[C@H](CC)NC1=O [Compound 1-2] | 0.07 | 0.03 | 0.2 | 0.05 | 0.004 | 0.3 | 0.1 | 0.1 | 0.004 | 0.02 | > 6.72 | no activity
7 | C/C=C1\NC(=O)c2csc(n2)CNC(=O)C[C@@H](/C=C/CCSC(=O)CCN)OC(=O)[C@H](C(C)C)NC1=O [Compound 6-6] | 0.65 | 56.4 | 1.65 | 0.952 | 0.3 | 0.001 | 4.16 | 0.86 | 1.29 | 0.065 | > 6.00 | no activity
8 | C/C=C1\NC(=O)c2csc(n2)CNC(=O)C[C@@H](/C=C/CCSC(=O)CCCCCCC)OC(=O)[C@H](C(C)C)N(C)C1=O [Compound 5-2] | 5.03 | 10.3 | 21.4 | 0.69 | 6.41 | 0.24 | 1.05 | 0.35 | 0.02 | 1.3 | > 5.00 | no activity
9 | C/C=C1\NC(=O)c2cccc(c2)CNC(=O)C[C@@H](/C=C/CCSC(=O)CCCCCCC)OC(=O)[C@H](C(C)C)NC1=O [Compound 2-6] | 11.7 | 64.5 | 45 | 0.65 | 0.56 | 4.2 | 12 | 0.5 | 12.6 | 56.2 | > 5.00 | no activity
